The text below walks through data of patent US20220096602A1, “LIF THERAPY FOR INDUCING INTESTINAL EPITHELIAL CELL REGENERATION” (Rutgers, the State University of New Jersey, priority 2019, published 2022).

The subject of data set [1] is intestinal epithelium. In words: Regeneration of intestinal epithelium after irradiation in inducible LIF-tgflox/+/Cre-ERT2 mice. The class given is in vivo, mouse. To be noted: tamoxifen-induced LIF expression; i.p. 3 days before 12 Gy IR; 72 h after irradiation. On the procedure: Eight-twelve-week-old male and female LIF-tg^flox/+/Cre-ERT2 mice were injected (i.p.) with tamoxifen ([…] body weight for male and […] body weight for female) to induce LIF expression 3 days before irradiation (D-3). Age- and gender-matched LIF-tg^flox/+/Cre-ERT2 mice were injected with corn oil as control on D-3. On D0 mice were subject to 12 Gy-whole-body irradiated. Mouse intestine tissue was collected at 72 h after irradiation (D3). The levels of Ki67 in intestinal epithelium were determined by immunohistochemistry (IHC) staining. n=6 in Tamoxifen treated group, n=4 in control group.

Data set [2] concerns LIF KO intestinal organoids. Kind of data set: Intestinal organoid culture: growth and proliferation of LIF KO organoids. Format: cell-based, mouse. Conditions: for stem cell number in LIF KO organoids: organoids from LIF KO, Lgr5-GFP mouse crypts; for growth and proliferation of LIF KO organoids: Stattic 2 μM, SB242235 1 μM. On the procedure:
(§1) Crypt isolation and organoid culture were performed as described previously (Nan Gao's paper, 2015, Development). Crypts were isolated from the mouse small intestine. 150-200 crypts were embedded in growth factor-reduced Matrigel and cultured with mouse ENR organoid culture medium containing 1×B27 (Life Tech Gibco), 1×N2 (Life Tech Gibco), 1 mM N-acetylcysteine (Sigma), 50 ng/ml of EGF (Life Technology), 100 ng/ml of Noggin (R&D System), and 1 μg/ml of R-spondin 1 (R&D system). Recombinant mouse LIF (Millipore), wortmannin (Cell Signaling Technology) and CHIR99021 (Stemgent) were used for organoid treatment.
(§2) The size organoid was evaluated by quantify surface area of horizontal cross section of organoids acquired from multiple random non-overlapping pictures by an Olympus inverted microscope using ImageJ software. The vertical direction of expansion was not included in the calculations. n≥30/group. The percentages of budding organoids were analyzed by light microscopy at different days during organoid culture. n≥100/group.
(§3) IF staining of organoids was performed as previously described (Gao and Kaestner, 2010). In brief, organoids were fixed with 4% paraformaldehyde for 10 min, treated with 0.5% TritonX-100 for 10 min and blocked with 10% goat serum in IF buffer (0.1% BSA, 0.2% Triton X100, 0.05% Tween-20, 0.05% NaN3 in PBS) for 2 hours. Organoids were incubated with anti-Ki67 (Abcam, ab16667, 1:200 dilution) and anti-GFP (Abcam, ab6673, 1:1000 dilution) antibodies overnight at room temperature and then incubated with Alexa Fluor® 555 Goat Anti-Rabbit IgG (H+L) (Invitrogen, 1:800 dilution) and Alexa Fluor® 488 Donkey Anti-Goat IgG (H+L) (Invitrogen, 1:200 dilution), respectively to detect Ki67 and Lgr5-EGFP. Nuclei were stained with 4′, 6-diamidino-2-phenylindole (DAPI; Vector).

Data set [3] concerns WT intestinal organoids. In words: Intestinal organoid culture: growth and proliferation of WT organoids. To be noted: for stem cell number in WT organoids: organoids from WT, Lgr5-GFP mouse crypts; for growth and proliferation of WT organoids: Stattic 2 μM, SB242235 1 μM; for effect on ISC functions in WT organoids: blocking STAT3 or MAPK activity. Format: cell-based, mouse. On the procedure:
as §1, §2, §3

In data set [4] the test system is β-catenin target genes Axin2, Ascl1, Olfm4 and Lgr5. Kind of data set: Quantitative real-time PCR of β-catenin target genes in organoids. The class given is cell-based, mouse. To be noted: normalized with β-actin. On the procedure:
Total RNA from mice small intestine tissues or organoids was prepared by using an RNeasy kit (Qiagen). Quantitative real-time PCR assays were performed as described previously. The expression of genes was normalized with the β-actin gene. Data was obtained from 5 independent biological samples with 3 technical replicates. To investigate whether LIF regulates ISC function through upregulating the AKT signaling, WT and LIF KO organoids were treated with Wortmannin, a PI3K inhibitor that inhibits the PI3K/Akt signaling, and Capivasertib, a specific AKT inhibitor (31, 32). […] Further, we directly examined the effects of Capivasertib and SC79 on β-catenin activity by measuring the mRNA levels of its target genes in WT and LIF KO organoids. […] We further treated organoids formed by WT or LIF KO; Lgr5-GFP mouse crypts with Wortmannin, Capivasertib or SC79. […] We further examined whether blocking GSK3β can improve the growth of LIF KO organoids.
On the technique in general: Quantitative PCR measures a nucleic acid by following its amplification.

For data set [5], the target named is T1, LIF receptor (LIFR) (Homo sapiens, UniProt P42702).
T1 sequence (P42702 45-1097): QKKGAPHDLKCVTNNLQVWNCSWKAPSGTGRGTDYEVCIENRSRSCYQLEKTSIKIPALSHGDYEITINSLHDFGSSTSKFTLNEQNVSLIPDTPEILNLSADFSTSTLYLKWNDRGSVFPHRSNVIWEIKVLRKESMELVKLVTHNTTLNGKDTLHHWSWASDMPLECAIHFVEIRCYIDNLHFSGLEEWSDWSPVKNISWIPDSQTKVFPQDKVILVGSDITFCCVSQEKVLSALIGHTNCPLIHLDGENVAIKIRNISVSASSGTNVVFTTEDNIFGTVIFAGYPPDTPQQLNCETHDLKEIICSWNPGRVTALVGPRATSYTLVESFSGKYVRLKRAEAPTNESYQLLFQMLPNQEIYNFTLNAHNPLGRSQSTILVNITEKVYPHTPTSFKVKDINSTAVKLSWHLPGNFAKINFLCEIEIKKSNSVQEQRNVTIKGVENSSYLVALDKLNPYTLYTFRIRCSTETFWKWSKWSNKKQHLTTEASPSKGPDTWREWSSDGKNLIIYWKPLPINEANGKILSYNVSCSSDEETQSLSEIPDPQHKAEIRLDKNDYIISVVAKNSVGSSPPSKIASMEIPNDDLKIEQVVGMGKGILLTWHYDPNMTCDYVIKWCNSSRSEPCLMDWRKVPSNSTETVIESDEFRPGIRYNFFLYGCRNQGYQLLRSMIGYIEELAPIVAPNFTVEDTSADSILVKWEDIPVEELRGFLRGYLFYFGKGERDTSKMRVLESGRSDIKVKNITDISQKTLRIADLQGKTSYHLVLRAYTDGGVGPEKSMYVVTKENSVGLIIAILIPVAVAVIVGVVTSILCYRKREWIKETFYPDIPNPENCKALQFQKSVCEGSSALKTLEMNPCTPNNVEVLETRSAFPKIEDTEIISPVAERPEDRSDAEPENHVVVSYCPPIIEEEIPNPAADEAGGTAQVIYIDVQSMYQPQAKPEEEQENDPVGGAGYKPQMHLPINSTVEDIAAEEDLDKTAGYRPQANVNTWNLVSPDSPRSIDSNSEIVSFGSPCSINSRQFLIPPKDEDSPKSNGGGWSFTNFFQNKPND
Conditions: cited from earlier work.

For data set [6], the target named is T2, gp130 (LIF:LIFR:gp130 complex) (Homo sapiens, UniProt P40189+P42702).
T2 sequence (P40189 23-918): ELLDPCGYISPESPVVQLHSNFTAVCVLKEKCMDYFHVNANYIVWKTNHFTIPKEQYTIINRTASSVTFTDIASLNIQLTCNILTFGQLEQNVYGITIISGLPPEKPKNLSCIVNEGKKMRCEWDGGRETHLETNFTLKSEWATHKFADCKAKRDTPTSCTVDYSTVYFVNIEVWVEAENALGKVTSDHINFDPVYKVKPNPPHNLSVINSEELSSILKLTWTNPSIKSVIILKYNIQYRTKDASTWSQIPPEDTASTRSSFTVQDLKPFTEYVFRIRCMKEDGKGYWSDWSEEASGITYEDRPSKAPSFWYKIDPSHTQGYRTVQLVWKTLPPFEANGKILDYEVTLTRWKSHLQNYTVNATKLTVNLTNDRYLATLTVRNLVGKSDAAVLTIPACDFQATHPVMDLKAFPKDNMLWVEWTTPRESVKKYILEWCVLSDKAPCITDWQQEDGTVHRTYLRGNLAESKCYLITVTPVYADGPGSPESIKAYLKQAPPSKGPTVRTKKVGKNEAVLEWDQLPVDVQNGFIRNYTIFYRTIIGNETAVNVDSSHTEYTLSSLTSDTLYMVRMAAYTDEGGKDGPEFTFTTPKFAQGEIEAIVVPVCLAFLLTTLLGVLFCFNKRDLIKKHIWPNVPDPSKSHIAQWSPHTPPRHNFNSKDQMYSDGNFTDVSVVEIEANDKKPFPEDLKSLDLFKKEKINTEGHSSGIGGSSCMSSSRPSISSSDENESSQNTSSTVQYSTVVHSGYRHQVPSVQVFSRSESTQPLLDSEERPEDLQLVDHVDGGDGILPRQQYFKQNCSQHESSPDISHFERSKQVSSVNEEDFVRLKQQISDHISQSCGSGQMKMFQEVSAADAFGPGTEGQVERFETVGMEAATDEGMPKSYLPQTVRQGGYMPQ
T2 sequence (P42702 45-1097): T1 sequence (P42702 45-1097)
Conditions: after binding to LIFR; cited from earlier work.

The conditions of data set [7]: single s.c. dose, up to doses of 4 μg/kg, healthy volunteers; cited from earlier work.
For data set [8] the following is noted: patients with advanced cancers; cited from earlier work.

Take `CC/C(=C(\c1ccccc1)c1ccc(OCCN(C)C)cc1)c1ccccc1` [tamoxifen]: the “intestinal crypt regeneration (viable crypts), higher than controls” value in data set [1] is approximately 50%.

Turning to `Cc1c[nH]c(-c2cnc(NCCNc3ccc(C#N)cn3)nc2-c2ccc(Cl)cc2Cl)n1` [CHIR99021], in data set [2] (CHIR99021 3 μM), the “growth, cell proliferation and stem cell number of LIF KO organoids” value is “greatly improved”. For the same molecule, the “growth, cell proliferation and stem cell number of WT organoids” value in data set [3] (CHIR99021 3 μM, compared with LIF KO organoids) is on record as “much less pronounced effect”.

For `CCOC(=O)C1=C(N)Oc2ccc(Cl)cc2C1C(C#N)C(=O)OCC` (stereo not shown) [SC79], the “growth and cell proliferation of LIF KO organoids” value in data set [2] (SC79 5 μM) is given as “greatly improved”. Further, in data set [2], the “stem cell number in LIF KO organoids” value is “greatly increased”. For the same molecule, in data set [4], the “mRNA levels of Axin2, Ascl1, Olfm4 and Lgr5 in LIF KO organoids” value is reported as “greatly increased”; the “mRNA levels of Axin2, Ascl1, Olfm4 and Lgr5 in WT organoids” value is recorded as “less pronounced effect”. The “growth and cell proliferation of WT organoids” value in data set [3] (SC79 5 μM, compared with LIF KO organoids) is “less pronounced effect”. Besides, the “stem cell number in WT organoids” value in data set [3] is “less pronounced effect”.

Turning to `O=[N+]([O-])c1ccc2c(c1)S(=O)(=O)C=C2` [Stattic], the “growth and proliferation of LIF KO organoids” value in data set [2] is reported as “did not have a significant effect”. Further, in data set [3], the “growth and proliferation of WT organoids” value is on record as “did not have a significant effect”; the “effect on ISC functions in WT organoids” value is reported as “very limited effect”.

On to `NC1(C(=O)N[C@@H](CCO)c2ccc(Cl)cc2)CCN(c2ncnc3[nH]ccc23)CC1` [Capivasertib], for which the “rescue effect of recombinant LIF on the growth of LIF KO organoids” value in data set [2] (inhibitor 1 μM with LIF 50 ng/ml) is given as “largely abolished”. Also, the “inhibitory effects on organoid growth and cell proliferation in LIF KO organoids” value in data set [2] (inhibitor 1 μM, compared with WT organoids) is “much less pronounced”. Moreover, the “stem cell number in LIF KO organoids” value in data set [2] is “much less pronounced inhibitory effect”. Besides, in data set [4], the “mRNA levels of Axin2, Ascl1, Olfm4 and Lgr5 in LIF KO organoids” value was “less pronounced effect”; the “mRNA levels of Axin2, Ascl1, Olfm4 and Lgr5 in WT organoids” value is “significantly decreased”. In addition, the “growth of WT organoids and cell proliferation (surface area, organoid formation, Ki67+ cells)” value in data set [3] (inhibitor 1 μM, WT organoids) is “greatly inhibited”. The “stem cell number in WT organoids” value in data set [3] is listed as “greatly decreased”.

Turning to “human LIF: Human canonical LIF, accession number P15018, SEQ ID NO: 1”, the “affinity of binding to LIFR” value in data set [5] is on record as “low nanomolar”. Also, the “affinity of functional signaling complex with gp130” value in data set [6] is listed as “picomolar”.

Turning to `COc1nccc(-c2c(-c3ccc(F)cc3)ncn2C2CCNCC2)n1` [SB242235], the “growth and proliferation of LIF KO organoids” value in data set [2] is “did not have a significant effect”. Moreover, in data set [3], the “growth and proliferation of WT organoids” value was “did not have a significant effect”; the “effect on ISC functions in WT organoids” value was “no obvious effect”.

For “rhLIF: Emfilermin is the term used for rhLIF produced in Escherichia coli”, the safety and tolerability entry in data set [7] was “safe and well tolerated”. In data set [8], the “adverse effects on blood progenitor cells” value is “no adverse effects”, the “hematopoietic recovery after chemotherapy” value is reported as “normal” and the safety of administration entry was “safely administered”.
